Data on 5 compounds can be found in patent US4346078A, “Novel anticoagulant agmatine derivatives and process for the preparation thereof” (Richter Gedeon Vegyeszeti Gyar Rt., priority 1980, dated 1982).

Assay [1] concerns gray rabbits. Kind of assay: In vivo prothrombin activity of the blood assayed according to Quick. Set-up: species or system rabbit. On the procedure:
In in vivo trials gray rabbits (2 to 3 kg) were administered subcutaneously:
b. 10 mg/kg D-Phe-Pro-Agm.2HCl, or
c. 5 mg/kg heparin and 10 mg/kg D-Phe-Pro-Agm.2HCl.

The target of assay [2] is T1, Human Thrombin (Homo sapiens, UniProt P00734).
T1 construct: 0.1 ml US Standard Human Thrombin 5 NIH Unit/ml
Kind of assay: Relative thrombin-time in human citrate plasma B. It counts as biochemical. The conditions noted are these: system B human citrate plasma, without inhibitor = 1. On the procedure:
(§1) In in vitro trials the effect of D-Phe-Pro-Agm.2HCl (in formula I, X is a D-phenylalanine moiety, B is chloride ion and n=2) and heparin was studied in an isolated system, in a fibrinogen-thrombin reaction mixture A and in human citrate plasma B:
0.2 ml of human citrate plasma
0.1 ml US Standard Human Thrombin 10 NIH U/ml.

In assay [3] the target is T1, Human Thrombin. The assay is described as follows: Fibrinogen-thrombin reaction: amount required to double the thrombin time of fibrinogen. The note with it: for Amount of agmatine derivative required to double the thrombin-time of fibrinogen: bovine fibrinogen, human thrombin 5 NIH Unit/ml, pH 7.4, thrombin time without derivative 15 seconds; for relative activity: related to tosyl-agmatine, taken as unity. It counts as biochemical. An excerpt:
It is known that the simple acyl derivatives of agmatine (1-amino-4-guanidino-butane), as for instance tosyl-agmatine (1-[p-toluene-sulfonylamido]-4-guanidino-butane), have the ability to inhibit the proteolytic reactions of both tripsin and thrombin (Lorand and Rule: Nature, 190, 722, 1961; Rule and Lorand: Biochim. Biophys. Acta, 81, 130, 1964). According to these authors tosyl-agmatine delays the clotting of blood plasma, and also is assumed to suppress the fibrinogen-thrombin reaction. In our own experiments, however, the fibrinogen-thrombin reaction was affected by tosyl-agmatine to a negligible degree: 0.7 mg of tosyl-agmatine is required to double (from 15 sec to 30 sec) the thrombin time of 1 ml of a solution containing 1.25 mg of fibrinogen and 1.25 NIH units of thrombin ("Minimum Requirements of Dried Thrombin", 2nd rev. Div. Biol. Conf. Natl. Inst. Health, Bethesda, Md., United States 1946).
The potency of the substances is defined by the amount of the compound required to double the thrombin time of fibrinogen. Furthermore, the relative potency of the novel agmatine derivatives related to tosyl-agmatine (the activity of the last-mentioned drug is taken as unity) is listed, too.
The potency of the compounds was assayed in the following system:
0.2 ml of 0.5 percent bovine fibrinogen in 0.9 percent NaCl solution,
0.1 ml of tris-(hydroxymethyl)-methylamine hydrochloride buffer solution (pH=7.4) containing the agmatine derivative, and
0.1 ml US Standard Human Thrombin 5 NIH Unit/ml.
The thrombin time of the system devoid of agmatine derivative is 15 seconds.

The target in assay [4] is T1, Human Thrombin. The assay is described as follows: Relative thrombin-time in isolated fibrinogen-thrombin reaction mixture A. Type of assay: biochemical. The note with it: system A, without inhibitor = 1. On the procedure:
as §1
0.2 ml of 0.5 percent bovine fibrinogen in 0.9 percent saline solution,
0.1 ml US Standard Human Thrombin 10 NIH Unit/ml.

[5] abbreviates: D-Phe-Pro-Agm.2HCl 0.10 μg/ml reaction mixture.
The mark [6] stands for this setting: heparin 0.05 μg/ml reaction mixture.
Where [7] appears, read: heparin 0.10 μg/ml reaction mixture.
Setting [8] is: heparin 0.20 μg/ml reaction mixture.

Where a SMILES comes first, the peptide text is derived from it. [ ]: non-standard residue; d: D form. The star is where a group is joined. dPhg = N[C@@H](C(=O)O)c1ccccc1; Agmatine = N=C(N)NCCCCN*; Bn = c1ccc(C*)cc1

Regarding `ClOCl.N=C(N)NCCCCNC(=O)[C@@H]1CCCN1C(=O)[C@H](N)Cc1ccccc1` [H--D--Phe--Pro--Agm, D-Phenylalanyl-L-prolyl-agmatine-dichlorohydrate] (H-[dF]-Pro-Agmatine), the “prothrombin activity of the blood” value in assay [1] (10 mg/kg D-Phe-Pro-Agm.2HCl subcutaneously) is recorded as “practically unaltered”. Besides, the “Relative thrombin-time, alone” value in assay [2] (D-Phe-Pro-Agm.2HCl 0.05 μg/ml reaction mixture) was determined as 2.2; in assay [2] (setting [5]) it was 3.4; in assay [4] (setting [5]), 2.5; in assay [4] (D-Phe-Pro-Agm.2HCl 0.20 μg/ml reaction mixture), 4.0. Also, the “anticoagulant potency (in words)” value in assay [3] is given as “extremely high activity”. Moreover, the “Amount of agmatine derivative required to double the thrombin-time of fibrinogen” value (from here on “Amount of agmatine derivative required”) in assay [3] was 0.12 μ/reaction mixture. For the same compound, in assay [3], the relative activity amounted to 2333.

`ClOCl.N=C(N)NCCCCNC(=O)[C@@H]1CCCN1C(=O)[C@H](N)c1ccccc1` [H--D--Phg--Pro--Agm, D-Phenylglycyl-L-prolyl-agmatine-dichlorohydrate] (H-[dPhg]-Pro-Agmatine): in assay [3], the “Amount of agmatine derivative required” value was 1.4 μ/reaction mixture and the relative activity was 200.

`ClOCl.N=C(N)NCCCCNC(=O)[C@@H]1CCCN1C(=O)[C@H](N)COCc1ccccc1` [H--D--Ser(Bzl)--Pro--Agm, O-Benzyl-D-seryl-L-prolyl-agmatine-dichlorohydrate] (H-[dS](Bn)-Pro-Agmatine): in assay [3], the “Amount of agmatine derivative required” value is 0.7 μ/reaction mixture and the relative activity is given as 400.

Take `Cc1ccc(S(=O)(=O)NCCCCNC(=N)N)cc1` [Tosyl--agmatine, 1-[p-toluene-sulfonylamido]-4-guanidino-butane, reference compound]: the “amount required to double (from 15 sec to 30 sec) the thrombin time” value in assay [3] (1 ml of a solution containing 1.25 mg of fibrinogen and 1.25 NIH units of thrombin) stood at 0.7 mg. Besides, in assay [3], the “Amount of agmatine derivative required” value was found to be 280 μ/reaction mixture and the relative activity stood at 1.

Regarding Heparin, in assay [1] (5 mg/kg heparin subcutaneously), the “prothrombin activity of the blood” value is “practically unaltered”. Further, the “Relative thrombin-time, alone” value in assay [2] (setting [6]) turned out to be 1.0; in assay [2] (setting [7]), 2.0; in assay [2] (setting [8]), 3.8; in assay [4] (setting [6]), 1.1; in assay [4] (setting [7]) it was 1.5; in assay [4] (setting [8]), 2.0.
